Laboratory results published in ChEMBL document CHEMBL5465560, “Selectivity Literature for EUbOPEN Chemogenomic Library” (2024).
One block for each compound: values may come before it.

Columns and labels:
[1] = molecular target: T1, Serine/threonine-protein kinase Nek1 (Homo sapiens) (UniProt Q96PY6); test: Selectivity interaction (Kinase panel (DSF assay)) EUB0001559a NEK1
T1 sequence (whole entry): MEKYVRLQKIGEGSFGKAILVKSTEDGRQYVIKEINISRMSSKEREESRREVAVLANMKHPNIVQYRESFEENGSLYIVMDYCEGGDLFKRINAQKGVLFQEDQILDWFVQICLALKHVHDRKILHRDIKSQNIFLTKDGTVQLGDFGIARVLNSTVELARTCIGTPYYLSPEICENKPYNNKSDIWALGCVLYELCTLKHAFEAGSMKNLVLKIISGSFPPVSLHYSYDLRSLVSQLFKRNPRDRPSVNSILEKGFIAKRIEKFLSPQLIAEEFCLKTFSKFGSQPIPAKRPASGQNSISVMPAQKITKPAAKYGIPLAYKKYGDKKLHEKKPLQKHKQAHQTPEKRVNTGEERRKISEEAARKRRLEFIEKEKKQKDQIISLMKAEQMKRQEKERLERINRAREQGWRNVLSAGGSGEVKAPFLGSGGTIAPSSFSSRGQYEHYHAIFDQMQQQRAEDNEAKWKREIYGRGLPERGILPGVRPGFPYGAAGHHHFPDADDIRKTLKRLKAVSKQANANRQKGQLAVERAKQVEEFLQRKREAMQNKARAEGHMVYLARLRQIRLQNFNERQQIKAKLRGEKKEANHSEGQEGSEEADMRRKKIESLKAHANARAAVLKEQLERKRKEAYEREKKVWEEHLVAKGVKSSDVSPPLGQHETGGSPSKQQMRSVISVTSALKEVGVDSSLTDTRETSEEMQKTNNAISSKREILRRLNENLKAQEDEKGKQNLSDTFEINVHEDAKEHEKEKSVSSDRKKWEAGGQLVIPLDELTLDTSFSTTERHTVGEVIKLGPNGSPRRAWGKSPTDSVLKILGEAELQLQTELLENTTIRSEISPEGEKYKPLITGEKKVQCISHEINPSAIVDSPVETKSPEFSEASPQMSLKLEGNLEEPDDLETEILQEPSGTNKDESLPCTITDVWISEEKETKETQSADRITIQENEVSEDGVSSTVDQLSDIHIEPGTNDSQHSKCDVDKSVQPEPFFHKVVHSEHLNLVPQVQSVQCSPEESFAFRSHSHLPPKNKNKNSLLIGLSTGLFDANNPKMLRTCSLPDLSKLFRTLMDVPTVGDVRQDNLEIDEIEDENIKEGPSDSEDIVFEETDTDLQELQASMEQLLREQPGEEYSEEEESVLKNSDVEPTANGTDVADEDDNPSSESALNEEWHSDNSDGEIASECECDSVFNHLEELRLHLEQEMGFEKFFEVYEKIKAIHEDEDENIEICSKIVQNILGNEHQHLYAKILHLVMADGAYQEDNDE

Mu-type opioid receptor = Mu-type opioid receptor (Homo sapiens, UniProt P35372); test: Selectivity interaction (GPCR panel (PDSP screen)) EUB0001079a OPRM1; conditions: at 10 µM
Mu-type opioid receptor, sequence (P35372 whole entry): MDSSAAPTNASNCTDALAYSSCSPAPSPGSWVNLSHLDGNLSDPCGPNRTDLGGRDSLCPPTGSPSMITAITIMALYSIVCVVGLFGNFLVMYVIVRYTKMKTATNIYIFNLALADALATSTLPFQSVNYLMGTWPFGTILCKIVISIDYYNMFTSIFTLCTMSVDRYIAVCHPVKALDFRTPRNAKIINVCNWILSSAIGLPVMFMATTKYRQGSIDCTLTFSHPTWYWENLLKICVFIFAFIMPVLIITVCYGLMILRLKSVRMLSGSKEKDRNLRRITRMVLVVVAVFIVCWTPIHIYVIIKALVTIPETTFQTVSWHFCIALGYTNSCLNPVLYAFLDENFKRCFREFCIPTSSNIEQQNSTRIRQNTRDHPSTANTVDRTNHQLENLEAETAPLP

[2] = molecular target: Non-receptor tyrosine-protein kinase TYK2 (Homo sapiens, UniProt P29597); test: Selectivity interaction (KinomeScan (DiscoverX)) EUB0000607a TYK2; conditions: at 10 µM
Non-receptor tyrosine-protein kinase TYK2, sequence (P29597 whole entry): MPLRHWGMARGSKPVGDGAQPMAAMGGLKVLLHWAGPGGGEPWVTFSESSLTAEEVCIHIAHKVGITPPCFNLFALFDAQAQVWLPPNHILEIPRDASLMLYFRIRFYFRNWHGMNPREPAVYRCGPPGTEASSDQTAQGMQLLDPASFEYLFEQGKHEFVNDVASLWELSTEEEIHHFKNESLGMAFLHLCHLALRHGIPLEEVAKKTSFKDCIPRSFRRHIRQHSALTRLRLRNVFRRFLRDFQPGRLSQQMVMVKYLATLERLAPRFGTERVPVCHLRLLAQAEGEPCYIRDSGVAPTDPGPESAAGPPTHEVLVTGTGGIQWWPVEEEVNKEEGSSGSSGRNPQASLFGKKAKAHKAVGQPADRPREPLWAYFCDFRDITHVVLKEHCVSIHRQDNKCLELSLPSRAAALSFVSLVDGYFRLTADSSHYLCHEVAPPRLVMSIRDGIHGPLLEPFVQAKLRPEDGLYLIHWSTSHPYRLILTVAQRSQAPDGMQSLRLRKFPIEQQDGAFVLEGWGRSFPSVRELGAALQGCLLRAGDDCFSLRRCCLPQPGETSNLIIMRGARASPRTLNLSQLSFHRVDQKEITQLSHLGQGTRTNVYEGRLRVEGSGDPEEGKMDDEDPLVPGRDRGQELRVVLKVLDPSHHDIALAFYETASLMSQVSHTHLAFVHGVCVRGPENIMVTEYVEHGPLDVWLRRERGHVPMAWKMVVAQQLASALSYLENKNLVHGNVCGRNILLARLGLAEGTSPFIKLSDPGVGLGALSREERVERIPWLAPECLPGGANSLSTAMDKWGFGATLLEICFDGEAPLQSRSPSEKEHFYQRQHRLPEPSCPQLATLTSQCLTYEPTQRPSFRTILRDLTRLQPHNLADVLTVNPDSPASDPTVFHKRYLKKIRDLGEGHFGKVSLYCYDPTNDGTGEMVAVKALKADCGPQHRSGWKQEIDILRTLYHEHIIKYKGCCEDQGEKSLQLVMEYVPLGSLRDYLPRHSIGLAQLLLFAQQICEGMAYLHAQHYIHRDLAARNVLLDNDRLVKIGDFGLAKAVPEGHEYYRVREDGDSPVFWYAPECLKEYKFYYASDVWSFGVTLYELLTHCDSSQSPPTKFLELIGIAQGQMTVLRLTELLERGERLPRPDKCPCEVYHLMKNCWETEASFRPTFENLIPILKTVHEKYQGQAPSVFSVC

[3] = molecular target: Receptor-interacting serine/threonine-protein kinase 2 (Homo sapiens, UniProt O43353); test: Selectivity interaction (Competition-binding assay (DiscoverX)) EUB0000229b RIPK2
Receptor-interacting serine/threonine-protein kinase 2, sequence (O43353 whole entry): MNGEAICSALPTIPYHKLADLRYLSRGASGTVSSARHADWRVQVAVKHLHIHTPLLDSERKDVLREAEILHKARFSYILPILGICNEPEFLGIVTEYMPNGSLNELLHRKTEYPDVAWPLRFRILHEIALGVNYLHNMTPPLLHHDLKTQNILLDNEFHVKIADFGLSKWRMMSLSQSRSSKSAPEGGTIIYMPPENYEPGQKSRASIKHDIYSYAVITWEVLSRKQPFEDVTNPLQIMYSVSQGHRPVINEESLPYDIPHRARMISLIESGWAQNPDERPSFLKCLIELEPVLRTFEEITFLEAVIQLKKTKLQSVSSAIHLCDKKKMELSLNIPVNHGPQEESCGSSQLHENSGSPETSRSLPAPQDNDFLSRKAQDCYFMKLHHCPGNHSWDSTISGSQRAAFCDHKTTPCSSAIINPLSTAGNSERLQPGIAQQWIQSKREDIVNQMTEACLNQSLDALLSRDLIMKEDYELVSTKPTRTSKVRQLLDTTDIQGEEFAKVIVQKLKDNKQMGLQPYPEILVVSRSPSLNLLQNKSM

[4] = molecular target: T2, Interleukin-1 receptor-associated kinase 3 (Homo sapiens) (UniProt Q9Y616); test: Selectivity interaction (KinomeScan (DiscoverX)) EUB0000666a IRAK3; conditions: at 10 µM
T2 sequence (whole entry): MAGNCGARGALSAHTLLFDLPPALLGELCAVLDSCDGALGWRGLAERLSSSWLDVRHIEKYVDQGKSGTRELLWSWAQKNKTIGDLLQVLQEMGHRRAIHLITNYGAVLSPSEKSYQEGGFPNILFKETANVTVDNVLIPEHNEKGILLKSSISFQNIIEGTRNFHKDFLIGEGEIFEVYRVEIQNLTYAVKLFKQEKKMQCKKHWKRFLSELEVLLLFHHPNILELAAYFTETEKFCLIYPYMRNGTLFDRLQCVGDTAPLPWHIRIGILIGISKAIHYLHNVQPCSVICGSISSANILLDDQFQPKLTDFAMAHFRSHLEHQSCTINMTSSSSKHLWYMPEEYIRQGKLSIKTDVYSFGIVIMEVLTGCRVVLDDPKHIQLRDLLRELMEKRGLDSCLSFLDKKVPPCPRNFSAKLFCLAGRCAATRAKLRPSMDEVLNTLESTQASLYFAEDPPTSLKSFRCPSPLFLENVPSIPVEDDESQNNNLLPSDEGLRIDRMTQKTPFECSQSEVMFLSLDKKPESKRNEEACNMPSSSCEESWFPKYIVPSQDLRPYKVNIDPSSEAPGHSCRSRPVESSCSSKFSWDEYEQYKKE

[5] = molecular target: T3, Inhibitor of nuclear factor kappa-B kinase subunit epsilon (Homo sapiens) (UniProt Q14164); test: Selectivity interaction (KinomeScan (DiscoverX)) EUB0000092b IKBKE; conditions: at 10 µM
T3 sequence (whole entry): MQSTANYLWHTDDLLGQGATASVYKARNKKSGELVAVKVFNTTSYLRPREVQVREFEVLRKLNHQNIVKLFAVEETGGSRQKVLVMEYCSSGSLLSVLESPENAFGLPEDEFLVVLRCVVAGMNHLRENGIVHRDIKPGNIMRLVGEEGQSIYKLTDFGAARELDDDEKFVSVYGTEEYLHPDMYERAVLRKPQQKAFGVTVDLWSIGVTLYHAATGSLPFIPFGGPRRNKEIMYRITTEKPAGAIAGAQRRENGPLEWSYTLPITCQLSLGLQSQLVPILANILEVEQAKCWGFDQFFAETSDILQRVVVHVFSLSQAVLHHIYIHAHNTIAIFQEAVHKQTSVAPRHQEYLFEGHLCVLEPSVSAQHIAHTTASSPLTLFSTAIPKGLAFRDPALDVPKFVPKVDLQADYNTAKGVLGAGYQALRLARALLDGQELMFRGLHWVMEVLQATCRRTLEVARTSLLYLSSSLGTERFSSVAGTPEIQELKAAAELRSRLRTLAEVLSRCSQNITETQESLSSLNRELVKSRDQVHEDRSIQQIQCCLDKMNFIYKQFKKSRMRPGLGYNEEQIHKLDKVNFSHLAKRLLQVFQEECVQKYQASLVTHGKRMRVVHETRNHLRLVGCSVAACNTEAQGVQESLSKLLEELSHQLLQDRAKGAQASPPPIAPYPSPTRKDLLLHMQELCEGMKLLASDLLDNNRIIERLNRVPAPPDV

[6] = molecular target: Fibroblast growth factor receptor 1 (Homo sapiens, UniProt P11362); test: Selectivity interaction (Kinase panel (Z-LYTE Assay)) EUB0001632a FGFR1; conditions: at 10 µM
Fibroblast growth factor receptor 1, sequence (P11362 22-822 limits assumed): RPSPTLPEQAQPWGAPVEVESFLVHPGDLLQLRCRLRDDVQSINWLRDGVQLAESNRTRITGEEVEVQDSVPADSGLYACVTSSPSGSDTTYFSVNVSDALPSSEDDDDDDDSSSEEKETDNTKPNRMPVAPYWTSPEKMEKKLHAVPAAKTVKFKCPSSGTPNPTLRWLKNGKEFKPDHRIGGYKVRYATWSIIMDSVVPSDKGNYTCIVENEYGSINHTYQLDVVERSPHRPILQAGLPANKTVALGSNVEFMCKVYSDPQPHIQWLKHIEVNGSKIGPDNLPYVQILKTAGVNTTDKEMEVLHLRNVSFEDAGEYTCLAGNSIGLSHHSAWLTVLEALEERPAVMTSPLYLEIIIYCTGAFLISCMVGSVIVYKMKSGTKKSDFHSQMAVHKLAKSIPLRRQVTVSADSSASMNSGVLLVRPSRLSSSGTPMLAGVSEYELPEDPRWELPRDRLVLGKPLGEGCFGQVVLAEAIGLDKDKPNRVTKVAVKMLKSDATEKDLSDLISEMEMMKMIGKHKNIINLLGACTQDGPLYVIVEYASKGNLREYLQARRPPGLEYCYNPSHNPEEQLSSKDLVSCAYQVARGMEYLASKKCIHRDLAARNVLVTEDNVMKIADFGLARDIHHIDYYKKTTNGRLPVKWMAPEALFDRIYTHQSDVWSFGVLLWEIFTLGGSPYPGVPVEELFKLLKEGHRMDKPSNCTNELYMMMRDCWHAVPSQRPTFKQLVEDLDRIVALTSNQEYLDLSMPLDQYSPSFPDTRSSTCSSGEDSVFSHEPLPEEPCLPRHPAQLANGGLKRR

[7] = molecular target: RAC-gamma serine/threonine-protein kinase (Homo sapiens, UniProt Q9Y243); test: Selectivity interaction (Rxn Biology Kinase assay) EUB0001632a AKT3; conditions: at 10 µM
RAC-gamma serine/threonine-protein kinase, sequence (Q9Y243 whole entry): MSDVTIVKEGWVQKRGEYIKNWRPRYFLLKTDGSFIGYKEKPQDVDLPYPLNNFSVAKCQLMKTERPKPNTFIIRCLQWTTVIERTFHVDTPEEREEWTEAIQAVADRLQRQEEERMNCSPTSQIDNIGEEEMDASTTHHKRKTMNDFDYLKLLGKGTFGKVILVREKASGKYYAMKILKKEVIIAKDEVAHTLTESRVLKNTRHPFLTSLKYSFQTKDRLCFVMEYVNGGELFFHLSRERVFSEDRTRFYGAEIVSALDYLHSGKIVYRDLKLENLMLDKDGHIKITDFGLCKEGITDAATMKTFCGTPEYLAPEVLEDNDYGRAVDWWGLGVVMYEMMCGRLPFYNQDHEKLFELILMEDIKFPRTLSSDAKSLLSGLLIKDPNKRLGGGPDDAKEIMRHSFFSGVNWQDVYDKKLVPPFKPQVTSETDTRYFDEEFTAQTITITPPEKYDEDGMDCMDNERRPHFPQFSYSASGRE

[8] = molecular target: Protein kinase C theta type (Homo sapiens, UniProt Q04759); test: Selectivity interaction (KinomeScan (DiscoverX)) EUB0000695a PRKCQ; conditions: at 100 nM
Protein kinase C theta type, sequence (Q04759 whole entry, looked up): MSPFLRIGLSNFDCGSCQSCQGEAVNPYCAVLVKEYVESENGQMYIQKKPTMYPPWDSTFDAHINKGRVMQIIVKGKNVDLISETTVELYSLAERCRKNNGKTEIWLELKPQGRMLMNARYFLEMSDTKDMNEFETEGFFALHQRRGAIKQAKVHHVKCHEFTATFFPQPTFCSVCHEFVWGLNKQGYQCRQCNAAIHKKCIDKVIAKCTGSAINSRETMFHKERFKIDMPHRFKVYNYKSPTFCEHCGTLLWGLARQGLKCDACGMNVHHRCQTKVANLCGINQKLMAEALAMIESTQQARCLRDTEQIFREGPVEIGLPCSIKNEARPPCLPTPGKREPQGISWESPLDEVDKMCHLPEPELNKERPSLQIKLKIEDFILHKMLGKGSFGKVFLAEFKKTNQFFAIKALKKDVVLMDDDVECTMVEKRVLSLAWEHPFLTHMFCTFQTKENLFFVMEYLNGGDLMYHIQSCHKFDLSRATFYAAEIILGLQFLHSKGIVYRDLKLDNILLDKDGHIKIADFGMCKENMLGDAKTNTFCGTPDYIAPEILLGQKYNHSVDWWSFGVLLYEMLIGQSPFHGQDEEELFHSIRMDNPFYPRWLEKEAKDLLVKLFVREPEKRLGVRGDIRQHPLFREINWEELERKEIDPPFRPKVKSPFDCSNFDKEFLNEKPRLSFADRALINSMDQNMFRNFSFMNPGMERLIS

dTM [1]: 0.4 K
Structure (SMILES): CN(C(=O)c1cnn2cccnc12)c1cc2c(cc1N1CCOCC1)C(=O)N(C[C@@H](F)C(C)(C)O)C2

Structure (SMILES): Nc1cnc(N2CCc3cc(S(=O)(=O)Nc4c(F)cc(Cl)cc4F)cc(N4CCCC4=O)c32)nc1 [TP-020n]
% of inhibition (Mu-type opioid receptor): -1.31%

Structure (SMILES): CNC(=O)Nc1ccc(-c2nc(N3CC4CCC(C3)O4)c3cnn(C4CCC5(CC4)OCCO5)c3n2)cc1
% of control [2]: 100%

Structure (SMILES): COc1cc(N(C)c2ccnc3ccc(C(F)(F)F)cc23)cc(OC)c1OC
Kd [3]: 4.9 µM

Structure (SMILES): O=C(NOC[C@H](O)CO)c1ccc(F)c(F)c1Nc1ccc(I)cc1F
% of control [4]: 100%

Structure (SMILES): CCC(=O)N1CCN(c2ccc(-n3c(=O)ccc4cnc5ccc(-c6cnc7ccccc7c6)cc5c43)cc2C(F)(F)F)CC1
% of control [5]: 87%

% of control [6]: 30.2%
% of inhibition [7]: 6.75%
Structure (SMILES): Cn1cc(-n2cnc3c(NCc4nc5cc(Cl)c(Cl)cc5[nH]4)nc(N4CCOCC4)nc32)cn1

Structure (SMILES): Cc1cc(F)c(C(=O)Nc2cccc(-c3nncn3C(C)C)n2)cc1-n1cnc(C2CC2)c1
% of control [8]: 75%
